ChEMBL document CHEMBL5352447, “Development of [1,2]oxazoloisoindoles tubulin polymerization inhibitors: Further chemical modifications and potential therapeutic effects against lymphomas” (Eur J Med Chem, 2022)

Key:
SF-268 = experiment: Antiproliferative activity against human SF-268 cells assessed as cell growth inhibition incubated for 72 hrs by MTT assay; format: functional
RXF 393 = experiment: Antiproliferative activity against human RXF 393 cells assessed as cell growth inhibition incubated for 72 hrs by MTT assay; format: functional
SF-295 = experiment: Antiproliferative activity against human SF-295 cells assessed as cell growth inhibition incubated for 72 hrs by MTT assay; format: functional
UACC-62 = experiment: Antiproliferative activity against human UACC-62 cells assessed as cell growth inhibition incubated for 72 hrs by MTT assay; format: functional
OVCAR-8 = experiment: Antiproliferative activity against human OVCAR-8 cells assessed as cell growth inhibition incubated for 72 hrs by MTT assay; format: functional
[1] = Antiproliferative activity against human MINO cells assessed as inhibition of cell proliferation incubated for 72 hrs by MTT assay; format: functional, cell-based
VL51 [2] = experiment: Antiproliferative activity against human VL51 cells assessed as inhibition of cell proliferation incubated for 72 hrs by MTT assay; format: functional, cell-based; conditions: VL51, 72 h
CCRF-CEM = experiment: Antiproliferative activity against human CCRF-CEM cells assessed as cell growth inhibition incubated for 72 hrs by MTT assay; format: functional
HT-29 = experiment: Antiproliferative activity against human HT-29 cells assessed as cell growth inhibition incubated for 72 hrs by MTT assay; format: functional
SR = experiment: Antiproliferative activity against human SR cells assessed as cell growth inhibition incubated for 72 hrs by MTT assay; format: functional
Malme-3M = experiment: Antiproliferative activity against human Malme-3M cells assessed as cell growth inhibition incubated for 72 hrs by MTT assay; format: functional
BT-549 = experiment: Antiproliferative activity against human BT-549 cells assessed as cell growth inhibition incubated for 72 hrs by MTT assay; format: functional
[3] = Antiproliferative activity against human MINO cells assessed as proliferating cells at 1 uM incubated for 72 hrs by MTT assay relative to control; format: functional
DU-145 = experiment: Antiproliferative activity against human DU-145 cells assessed as cell growth inhibition incubated for 72 hrs by MTT assay; format: functional
SW-620 = experiment: Antiproliferative activity against human SW620 cells assessed as cell growth inhibition incubated for 72 hrs by MTT assay; format: functional
LOX IMVI = experiment: Antiproliferative activity against human LOX IMVI cells assessed as cell growth inhibition incubated for 72 hrs by MTT assay; format: functional
SK-MEL-5 = experiment: Antiproliferative activity against human SK-MEL-5 cells assessed as cell growth inhibition incubated for 72 hrs by MTT assay; format: functional
SNB-75 = experiment: Antiproliferative activity against human SNB-75 cells assessed as cell growth inhibition incubated for 72 hrs by MTT assay; format: functional
MCF7 = experiment: Antiproliferative activity against human MCF7 cells assessed as cell growth inhibition incubated for 72 hrs by MTT assay; format: functional
NCI-H522 = experiment: Antiproliferative activity against human NCI-H522 cells assessed as cell growth inhibition incubated for 72 hrs by MTT assay; format: functional
SN12C = experiment: Antiproliferative activity against human SN12C cells assessed as cell growth inhibition incubated for 72 hrs by MTT assay; format: functional
NCI/ADR-RES = experiment: Antiproliferative activity against human NCI-ADR-RES cells assessed as cell growth inhibition incubated for 72 hrs by MTT assay; format: functional
NCI-H460 = experiment: Antiproliferative activity against human NCI-H460 cells assessed as cell growth inhibition incubated for 72 hrs by MTT assay; format: functional
MDA-MB-435 = experiment: Antiproliferative activity against human MDA-MB-435 cells assessed as cell growth inhibition incubated for 72 hrs by MTT assay; format: functional
MDA-MB-468 = experiment: Antiproliferative activity against human MDA-MB-468 cells assessed as cell growth inhibition incubated for 72 hrs by MTT assay; format: functional
M14 = experiment: Antiproliferative activity against human M14 cells assessed as cell growth inhibition incubated for 72 hrs by MTT assay; format: functional
U-251 = experiment: Antiproliferative activity against human U-251 cells assessed as cell growth inhibition incubated for 72 hrs by MTT assay; format: functional
OVCAR-5 = experiment: Antiproliferative activity against human OVCAR-5 cells assessed as cell growth inhibition incubated for 72 hrs by MTT assay; format: functional
SU-DHL10 [4] = experiment: Antiproliferative activity against human SU-DHL-10 cells assessed as proliferating cells at 1 uM incubated for 72 hrs by MTT assay relative to control; format: functional
SNB-19 = experiment: Antiproliferative activity against human SNB-19 cells assessed as cell growth inhibition incubated for 72 hrs by MTT assay; format: functional
OVCAR-4 = experiment: Antiproliferative activity against human OVCAR-4 cells assessed as cell growth inhibition incubated for 72 hrs by MTT assay; format: functional
VL51 [5] = experiment: Antiproliferative activity against human VL51 cells assessed as proliferating cells at 1 uM incubated for 72 hrs by MTT assay relative to control; format: functional
HCT-15 = experiment: Antiproliferative activity against human HCT-15 cells assessed as cell growth inhibition incubated for 72 hrs by MTT assay; format: functional
A549 = experiment: Antiproliferative activity against human A549 cells assessed as cell growth inhibition incubated for 72 hrs by MTT assay; format: functional
NCI-H23 = experiment: Antiproliferative activity against human NCI-H23 cells assessed as cell growth inhibition incubated for 72 hrs by MTT assay; format: functional
NCI-H226 = experiment: Antiproliferative activity against human NCI-H226 cells assessed as cell growth inhibition incubated for 72 hrs by MTT assay; format: functional
TK-10 = experiment: Antiproliferative activity against human TK-10 cells assessed as cell growth inhibition incubated for 72 hrs by MTT assay; format: functional
HCC 2998 = experiment: Antiproliferative activity against human HCC 2998 cells assessed as cell growth inhibition incubated for 72 hrs by MTT assay; format: functional
UACC-257 = experiment: Antiproliferative activity against human UACC-257 cells assessed as cell growth inhibition incubated for 72 hrs by MTT assay; format: functional
KM12 = experiment: Antiproliferative activity against human KM12 cells assessed as cell growth inhibition incubated for 72 hrs by MTT assay; format: functional
IGROV-1 = experiment: Antiproliferative activity against human IGROV-1 cells assessed as cell growth inhibition incubated for 72 hrs by MTT assay; format: functional
COLO 205 = experiment: Antiproliferative activity against human COLO 205 cells assessed as cell growth inhibition incubated for 72 hrs by MTT assay; format: functional
MDA-MB-231 = experiment: Antiproliferative activity against human MDA-MB-231 cells assessed as cell growth inhibition incubated for 72 hrs by MTT assay; format: functional
SU-DHL10 [6] = experiment: Antiproliferative activity against human SU-DHL-10 cells assessed as inhibition of cell proliferation incubated for 72 hrs by MTT assay; format: functional, cell-based; conditions: SU-DHL10, 72 h
A498 = experiment: Antiproliferative activity against human A498 cells assessed as cell growth inhibition incubated for 72 hrs by MTT assay; format: functional
Hs-578T = experiment: Antiproliferative activity against human Hs-578T cells assessed as cell growth inhibition incubated for 72 hrs by MTT assay; format: functional

## COc1ccc(Cn2cc3c(c2-c2cc(OC)c(OC)c(OC)c2)CCc2c(CO)noc2-3)cc1
SF-268
  GI50: 1060 nM
RXF 393
  GI50: 160 nM
SF-295
  GI50: 180 nM
UACC-62
  GI50: 250 nM
OVCAR-8
  GI50: 380 nM
[1]
  IC50: 1400 nM
VL51 [2]
  IC50: 1600 nM
CCRF-CEM
  GI50: 320 nM
HT-29
  GI50: 320 nM
SR
  GI50: 210 nM
Malme-3M
  GI50: 13.5 µM
BT-549
  GI50: 490 nM
[3]
  Activity: 82.1%
DU-145
  GI50: 390 nM
SW-620
  GI50: 370 nM
LOX IMVI
  GI50: 570 nM
SK-MEL-5
  GI50: 210 nM
SNB-75
  GI50: 180 nM
MCF7
  GI50: 90 nM
NCI-H522
  GI50: 150 nM
SN12C
  GI50: 720 nM
NCI/ADR-RES
  GI50: 260 nM
NCI-H460
  GI50: 340 nM
MDA-MB-435
  GI50: 30 nM
MDA-MB-468
  GI50: 330 nM
M14
  GI50: 150 nM
U-251
  GI50: 330 nM
OVCAR-5
  GI50: 710 nM
SU-DHL10 [4]
  Activity: 62.1%
SNB-19
  GI50: 390 nM
OVCAR-4
  GI50: 5.44 µM
VL51 [5]
  Activity: 51.3%
HCT-15
  GI50: 260 nM
A549
  GI50: 420 nM
NCI-H23
  GI50: 520 nM
NCI-H226
  GI50: 15 µM
TK-10
  GI50: 17.7 µM
HCC 2998
  GI50: 1340 nM
UACC-257
  GI50: 14.7 µM
KM12
  GI50: 270 nM
IGROV-1
  GI50: 490 nM
COLO 205
  GI50: 300 nM
MDA-MB-231
  GI50: 630 nM
SU-DHL10 [6]
  IC50: 1800 nM
A498
  GI50: 280 nM
Hs-578T
  GI50: 410 nM
